Results: publication PMC12676205, “New Se‐Compounds With Antileishmanial, Antitumor, and Carbonic Anhydrase Inhibitory Properties” (Archiv Der Pharmazie, 2025)
Like-named read-outs stand apart in the source and are kept apart here.

Assays:
[1] = test system: NCI‐60 human cancer cell lines; set-up: method as in PMID 20442306; conditions: NCI-60 panel; read-out: mean GI50 in the same panel of cell lines; cited from earlier work
[2] = test system: L. major promastigotes; assay: Leishmanicidal activity against promastigotes (MTT), L. major; assay type: cell-based, Leishmania major; conditions: Leishmania major, 48 h, mean ± SD, read-out: L. major IC50
Description: (§1) The synthesized compounds were tested for their antileishmanial activity against promastigotes of L. major and L. infantum at four concentrations (1, 10, 50, and 100 µM) for 48 h using the 3‐(4,5‐dimethylthiazol‐2‐yl)‐2,5‐diphenyltetrazolium bromide (MTT) assay. In this evaluation, the activity was expressed in IC50 (concentration inhibiting the parasite growth by 50%). […] The CC50 was defined as the concentration of selenoesters that led to a reduction in the viability of the macrophages, such that only 50% of the cells survived when compared to the control group. This cell line, derived from the blood of a human with acute monocytic leukemia, was chosen as it has been widely reported that it resembles tissue macrophages to various extents as well as supports the infection by numerous Leishmania promastigotes. The selectivity indexes (SIs) were calculated as the ratio between toxicity on macrophages (THP‐1 cells)/antileishmanial activity. The data for standard control drugs (miltefosine and paromomycin) are included for comparison purposes.
(§2) The promastigotes of L. major (clone VI, MHOM/IL/80/Friendlin) and L. infantum (BCN‐150) were grown at 26°C under continuous shaking in M199 1× medium (Sigma, USA). This media was supplemented with 10% of heat‐inactivated fetal bovine serum (FBS) (Gibco, USA), 0.0005% (w/v) hemin, 0.1 mM adenine, 25 mM HEPES (pH 7.2), 0.0001% (w/v) biotin, and 100 UI/mL penicillin and […] streptomycin (Gibco, USA).
(§3) The antileishmanial activity of the reported selenoesters was determined using the MTT assay as previously described during the logarithmic growth phase of the tested promastigotes of L. major and L. infantum. Briefly, the Leishmania parasites were seeded into 96‐well flat‐bottom plates (3 × 10^5 parasites/100 µL) and treated with four different concentrations ranging between 1 and 100 µM of each selenoester at 26°C for 48 h. Afterwards, 20 µL of MTT (5 mg/mL in PBS) was added to each well and incubated for 4 h under the same conditions. Then, 80 µL/well of DMSO was added to dissolve the resultant formazan crystals. The absorbances were determined on a Multiskan EX photometric plate reader for microplates at 540 nm. Three independent experiments performed in triplicate were carried out for each compound, and OriginPro 8.5.1 Software was used to calculate the IC50 values by fitting the data to a dose–inhibition sigmoid curve.

[3] = test system: Leukemia subpanel; assay: NCI-60 five-dose assay, leukemia subpanel; assay type: cell-based; conditions: Homo sapiens, 48 h
Description: (§4) All the compounds were selected for further testing since they fulfilled the set NCI one‐dose screening parameters for threshold inhibition. They were tested at five different concentrations (0.01, 0.1, 1, 10, and 100 μM) for 48 h against the same cell line panel and the dose–response curves along with three response parameters (50% growth inhibitory concentration [GI50], the 50% lethal concentration [LC50], and the total growth inhibition [TGI]) were calculated for every cancer cell line. The full reported data and corresponding graphs are compiled in Supporting Information S1. Average values of GI50, TGI, and LC50 values of all the reported selenoesters in all the subpanels are represented in Figure 4.
(§5) All the reported selenoesters (1–6) were submitted to the DTP of NCI. First, they were screened at a single dose (10^−5 M) against a panel of 60 cancer cell lines derived from different tumor types following the methodology available (https://dtp.cancer.gov/discovery_development/nci-60/methodology.htm). As all the compounds satisfied the threshold inhibition criteria established, they were further assessed at five concentrations (0.01, 0.1, 1, 10, and 100 µM) against the same cell panel to obtain their corresponding dose–response curves and three antitumor parameters (GI50, TGI, and LC50) by regression. GraphPad Prism 7.0 Software was used to represent the corresponding graphs.

[4] = test system: Ovarian subpanel; assay: NCI-60 one-dose screen, ovarian subpanel; assay type: cell-based, human; conditions: 10 µM, 48 h
Description: (§6) To explore the potential antiproliferative properties of the newly synthesized derivatives, they were submitted to the National Cancer Institute's (NCI) Developmental Therapeutics Program (DTP) for screening at 10 μM in a panel of approximately 60 human cancer cell lines from different cancer types. The results are reported as the growth percentage (GP), which is the growth of the treated cells with each compound for 48 h compared to the untreated controls (Figure 2). […] The initial screening results are summarized in Figure 2, and the mean GP values of each subpanel are depicted in Figure 3. The full reports are compiled in the Supplementary Section.
as §5

[5] = test system: Breast subpanel; assay: NCI-60 one-dose screen, breast subpanel; assay type: cell-based, human; conditions: 10 µM, 48 h
Description: as §6, §5

[6] = test system: Melanoma subpanel; assay: NCI-60 one-dose screen, melanoma subpanel; assay type: cell-based, human; conditions: 10 µM, 48 h
Description: as §6, §5

[7] = test system: CNS subpanel; assay: NCI-60 one-dose screen, CNS subpanel; assay type: cell-based, human; conditions: 10 µM, 48 h
Description: as §6, §5

[8] = target: T1, hCA I (Homo sapiens, UniProt P00915); assay: hCA I inhibition, stopped-flow CO2 hydration assay; assay type: biochemical; conditions: stopped flow technique, mean from three assays
T1 construct: made in house
T1 sequence (P00915 whole entry): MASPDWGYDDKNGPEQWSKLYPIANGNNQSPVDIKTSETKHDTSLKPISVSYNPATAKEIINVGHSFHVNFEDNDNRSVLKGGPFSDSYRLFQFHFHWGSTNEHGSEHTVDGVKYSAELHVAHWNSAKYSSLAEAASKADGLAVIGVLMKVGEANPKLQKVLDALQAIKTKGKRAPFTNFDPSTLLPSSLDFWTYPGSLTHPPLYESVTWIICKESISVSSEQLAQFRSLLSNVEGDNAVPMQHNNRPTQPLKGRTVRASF
Description: (§7) An Applied Photophysics stopped‐flow instrument was used to assay the CA‐catalyzed CO2 hydration activity [52]. […] The uncatalyzed rates were determined in the same manner and subtracted from the total observed rates. Stock solutions of the inhibitor (0.1 mM) were prepared in distilled–deionized water, and dilutions up to 0.01 nM were done thereafter with the assay buffer. Inhibitor and enzyme solutions were preincubated together for 15 min at room temperature before the assay, to allow for the formation of the E–I complex. The inhibition constants were obtained by Nonlinear least‐squares methods using PRISM 3 and the Cheng‐Prusoff equation as reported earlier and represent the mean from at least three different determinations. All CA isoforms were recombinant proteins obtained in‐house, as reported earlier [54, 55, 56].

[9] = test system: Renal subpanel; assay: NCI-60 one-dose screen, renal subpanel; assay type: cell-based, human; conditions: 10 µM, 48 h
Description: as §6, §5

[10] = test system: CNS subpanel; assay: NCI-60 five-dose assay, CNS subpanel; assay type: cell-based; conditions: Homo sapiens, 48 h, read-out: Mean GI50 CNS
Description: as §4, §5

[11] = target: T2, hCA IX (Homo sapiens, UniProt Q16790); assay: biochemical; conditions: stopped flow technique, mean from three assays
T2 construct: made in house
Description: as §7

[12] = test system: Renal subpanel; assay: NCI-60 five-dose assay, renal subpanel; assay type: cell-based; conditions: Homo sapiens, 48 h, read-out: Mean GI50 Renal
Description: as §4, §5

[13] = test system: Leukemia subpanel; assay: NCI-60 one-dose screen, leukemia subpanel; assay type: cell-based, human; conditions: 10 µM, 48 h
Description: as §6, §5

[14] = test system: L. infantum promastigotes; assay: Leishmanicidal activity against promastigotes (MTT), L. infantum; assay type: cell-based, Leishmania infantum; conditions: Leishmania infantum, 48 h, mean ± SD, read-out: L. infantum IC50
Description: as §1, §2, §3

[15] = test system: Prostate subpanel; assay: NCI-60 one-dose screen, prostate subpanel; assay type: cell-based, human; conditions: 10 µM, 48 h
Description: as §6, §5

[16] = test system: NSCL (non‐small‐cell lung cancer) subpanel; assay: NCI-60 one-dose screen, NSCL subpanel; assay type: cell-based, human; conditions: 10 µM, 48 h
Description: as §6, §5

[17] = test system: Colon subpanel; assay: NCI-60 five-dose assay, colon subpanel; assay type: cell-based; conditions: Homo sapiens, 48 h
Description: as §4, §5

[18] = test system: Ovarian subpanel; assay: NCI-60 five-dose assay, ovarian subpanel; assay type: cell-based; conditions: Homo sapiens, 48 h, read-out: Mean GI50 Ovarian
Description: as §4, §5

[19] = test system: NSCL (non‐small‐cell lung cancer) subpanel; assay: NCI-60 five-dose assay, NSCL subpanel; assay type: cell-based; conditions: Homo sapiens, 48 h, read-out: Mean GI50 NSCL
Description: as §4, §5

[20] = test system: OVCAR‐5; assay: NCI-60 one-dose screen, OVCAR-5; assay type: cell-based, human; conditions: 10 µM, 48 h
Description: as §6, §5

[21] = test system: OVCAR‐5 ovarian cancer cells; assay: NCI-60 five-dose assay, OVCAR-5; assay type: cell-based, human; conditions: 48 h
Description: as §4, §5

[22] = test system: Colon subpanel; assay: NCI-60 one-dose screen, colon subpanel; assay type: cell-based, human; conditions: 10 µM, 48 h
Description: as §6, §5

[23] = test system: Breast subpanel; assay: NCI-60 five-dose assay, breast subpanel; assay type: cell-based; conditions: Homo sapiens, 48 h, read-out: Mean GI50 Breast
Description: as §4, §5

[24] = test system: Melanoma subpanel; assay: NCI-60 five-dose assay, melanoma subpanel; assay type: cell-based; conditions: Homo sapiens, 48 h, read-out: Mean GI50 Melanoma
Description: as §4, §5

[25] = target: T3, hCA XII (Homo sapiens, UniProt O43570); assay: hCA XII inhibition, stopped-flow CO2 hydration assay; assay type: biochemical; conditions: stopped flow technique, mean from three assays
T3 construct: made in house
T3 sequence (O43570 25-354): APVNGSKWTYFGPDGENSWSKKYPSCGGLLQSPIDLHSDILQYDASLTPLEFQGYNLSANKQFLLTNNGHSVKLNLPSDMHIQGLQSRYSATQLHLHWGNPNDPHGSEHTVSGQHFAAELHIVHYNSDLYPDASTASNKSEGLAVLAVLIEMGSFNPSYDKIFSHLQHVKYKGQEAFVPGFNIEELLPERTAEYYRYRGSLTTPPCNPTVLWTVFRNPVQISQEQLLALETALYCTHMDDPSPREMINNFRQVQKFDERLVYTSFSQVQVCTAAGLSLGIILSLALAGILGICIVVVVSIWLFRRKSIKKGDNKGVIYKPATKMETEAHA
Description: as §7

[26] = target: T4, hCA II (Homo sapiens, UniProt P00918); assay: hCA II inhibition, stopped-flow CO2 hydration assay; assay type: biochemical; conditions: stopped flow technique, mean from three assays
T4 construct: made in house
Description: as §7

[27] = test system: Prostate subpanel; assay: NCI-60 five-dose assay, prostate subpanel; assay type: cell-based, human; conditions: Homo sapiens, 48 h
Description: as §4, §5

[28] = test system: L. infantum promastigotes; set-up: method as in PMID 37570815, PMID 36364304; conditions: reference drugs; cited from earlier work
[29] = test system: THP‐1 cells; set-up: method as in PMID 37570815, PMID 36364304; conditions: reference drugs; cited from earlier work
[30] = test system: L. major promastigotes; set-up: method as in PMID 37570815, PMID 36364304; conditions: reference drugs; cited from earlier work

O=c1[nH]cc(F)c(=O)[nH]1 [5‐fluorouracil]
GI50 [1]: 18 µM

N#Cc1ccc(NC(=O)C[Se]C(=O)c2ccco2)cc1C(F)(F)F [Compound 4, Se‐(2‐((4‐cyano‐3‐(trifluoromethyl)phenyl)amino)‐2‐oxoethyl)furan‐2‐carboselenoate]
IC50 [2]: 26.5 ± 3.69 µM | GI50 ([3]; read-out: Mean GI50 Leukemia): 1.87 µM | CC50 ([3]; read-out: Mean LC50 Leukemia): > 100 µM | average growth cell value, Ovarian [4]: -28.29% | average growth cell value, Breast [5]: -25.05% | average growth cell value, Melanoma [6]: -56.62% | average growth cell value, CNS [7]: -60.59% | Ki [8]: > 100 µM | average growth cell value, Renal [9]: -40.11% | GI50 [10]: 1.8 µM | Ki [11]: 19 µM | GI50 [12]: 1.92 µM | average growth cell value, Leukemia [13]: 5.71% | IC50 [14]: 28.6 ± 2.4 µM | average growth cell value, Prostate [15]: -28.10% | average growth cell value, NSCL [16]: -37.92% | GI50 ([17]; read-out: Mean GI50 Colon): 1.91 µM | CC50 ([17]; read-out: Mean LC50 Colon): 27.6 µM | GI50 [18]: 1.94 µM | GI50 [19]: 1.56 µM | behaviour in OVCAR‐5 [20]: cytotoxic activity | cytotoxicity against OVCAR‐5 [21]: remarkable cytotoxicity | average growth cell value, Colon [22]: -19.82% | GI50 [23]: 1.72 µM | GI50 [24]: 1.44 µM | Ki [25]: 77.1 µM | Ki [26]: 93.8 µM | GI50 ([27]; read-out: Mean GI50 Prostate): 1.65 µM | CC50 ([27]; read-out: Mean LC50 Prostate): 53.2 µM

CCCCCCCCCCCCCCCCOP(=O)([O-])OCC[N+](C)(C)C [Miltefosine, miltefosine]
IC50 [28]: 31.9 ± 2.3 µM | CC50 [29]: 13.3 ± 2.8 µM | IC50 [30]: 66.6 ± 11.6 µM

NC[C@@H]1O[C@H](O[C@H]2[C@@H](O)[C@H](O[C@@H]3[C@@H](O)[C@H](N)C[C@H](N)[C@H]3O[C@H]3O[C@H](CO)[C@@H](O)[C@H](O)[C@H]3N)O[C@@H]2CO)[C@H](N)[C@@H](O)[C@@H]1O [Paromomycin, paromomycin]
IC50 [28]: 18 ± 1 µM | CC50 [29]: 39 ± 13.7 µM | IC50 [30]: 71 ± 3.3 µM

COc1cc2ncnc(Nc3ccc(F)c(Cl)c3)c2cc1OCCCN1CCOCC1 [gefitinib]
GI50 [1]: 3.2 µM

O=C1[O][Pt]2([NH][C@@H]3CCCC[C@H]3[NH]2)[O]C1=O [oxaliplatin]
GI50 [1]: 2.8 µM
